From PMC4122966, “Novel VCP modulators mitigate major pathologies of rd10, a mouse model of retinitis pigmentosa” (Scientific Reports, 2014)
Where “and” joins values, the source holds several entries; their conditions need not be identical. Equal entries are not always repeated.

Legend:
cellular VCP functions = assay: immunoblot of ubiquitinated proteins, CHOP (ER stress) and LC3 (autophagy) in cultured cells; assay type: cell-based
From the text: Figure 1 Structures and characterization of KUSs, novel VCP modulators. (a) Structures and IC50 values of KUS11, KUS31, KUS69, KUS94, KUS121, and KUS187. […] (b) ATPase activity assays of recombinant human […], comparing KUSs and DBeQ. (c) Immunoblot analysis of ubiquitinated proteins, an ER stress marker (CHOP), and an autophagy indicator (LC3), comparing KUSs and DBeQ. As a control, MG132, a proteasome inhibitor, was used for the analysis. Actin served as a loading control. Complete scans of the different blots are presented in Supplementary Fig. 7. (d) Comparison of KUSs and DBeQ for cell death-inducing activities. HeLa cells were treated with 50 μM DBeQ or KUSs for 24 hours. […]

C57BL/6 wild-type mice = assay: electroretinogram of adult wild-type mice administered KUS; assay type: in vivo, mouse
Experimental: Electroretinogram recording was performed to assess the visual function of rd10 mice at ages of 21, 25, 29, and 33 days. Mice were dark-adapted overnight before anesthetization. Electroretinograms were recorded using a gold loop corneal electrode with a light-emitting diode (Mayo Corp., Inazawa, Japan). A reference electrode was placed in the mouth and a ground electrode was inserted to the anus. Stimuli were produced with a light emitting diode stimulator (Mayo Corp.). The electroretinogram response signals were amplified, digitized at 10 kHz with a band-pass filter of 0.3 to 500 Hz, and analyzed (PowerLab 2/25; AD instruments, New South Wales, Australia). The a- and b-wave amplitudes and a-wave latency of the mixed cone and rod response (ISCEV (International Society for Clinical Electrophysiology of Vision) standard; scotopic 3.0)[34] were analyzed.
Supplementary Figure 6 (a) Time-dependent changes of b-wave amplitude in dark-adapted electroretinograms in non-treated C57BL/6 wild-type mice. b-wave […]
= 0.004. (b, c) a-wave (b) and b-wave (c) amplitude of adult C57BL/6 wild-type mice administered saline or KUS121 for 7 days. […]
amplitudes of a-and b-waves between mice administered saline or KUS121 (a-wave […]
92.9 vs. 420.8 ± 52.6, P = 0.86, t-test). Error bars indicate SD.
Lane 1, 1µM MG132; lane 2, control; lane 3, 5µM DBeQ; lane 4, 10µM DBeQ; lane 5, 15µM DBeQ; lane 6: KUS11; lane 7, KUS31; lane 8, KUS69; lane 9, KUS 94; lane 10, […]
Lane 1, Tm(-); lane 2, control; lane 3, KUS69; lane 4, KUS94; lane 5, KUS121; lane 6, KUS187; lane 7, Tm(-); lane 8, control; lane 9, 0.1mM ATP; lane 10, 0.3mM ATP; lane 11, 1mM ATP; lane 12, 3mM methylpyruvate; lane 13, 10mM methylpyruvate.

[1] = system: essentially all tested cultured cells; assay: cellular toxicity on cultured cells; assay type: cell-based; conditions: up to 50 μM
[2] = system: whole cell soluble lysate of neuronally differentiated PC12 cells; assay: total ATPase activity in clarified whole cell lysates; assay type: biochemical
Experimental: Figure 3 Effects of KUSs on ATPase activities, ATP levels, and acetyl-CoA levels. (a) Inhibition of ATPase activity in clarified whole cell lysates by KUS121, KUS187, and KUS94, but not KUS11. Total ATPase activities in clarified whole cell lysates from differentiated PC12 cells were measured in the absence and presence of KUSs. Relative ATPase activities are shown with values in the absence of KUS (D: DMSO) set at 100%. (b) HeLa cells were cultured in medium with low glucose (0.25 g/l) for 20 hours, with or without KUSs, and ATP levels were measured with luciferase assays. (c) HeLa cells were cultured in medium with low glucose (0.25 g/l) for 20 hours, with or without KUSs, and acetyl-CoA levels were measured. * P < 0.05, ** P < 0.01, *** P < 0.001 vs. DMSO control (Dunnett's test, n = 3).
(§1) We measured ATPase activities by modifying the molybdate assay, which was as described previously. In the assay, 1 μg of whole cell soluble lysate of neuronally differentiated PC12 cells, or 500 ng recombinant VCP protein, was incubated in 20 μl of the ATPase assay buffer (20 mM HEPES (pH 7.4), 50 mM KCl, 5 mM MgCl2) with 100 μM [γ-^32P]ATP (18.5 GBq/mmol) (PerkinElmer) at 37°C for 20 min. After incubation, the reaction was quenched by addition of 200 μl of 8% ice-cold trichloroacetic acid solution with 1 mM K2HPO4, and then 50 μl of solution A (3.75% ammonium molybdate, 0.02 M silicotungstic acid in 3 N H2SO4) and 300 μl of n-butyl acetate were added to the reaction. The samples were mixed well and centrifuged at 12,000 × g for 1 min. Then, 200 μl aliquots from the upper organic phases were taken and their radioactivity was determined with a liquid scintillation counter for β-radiation, which determined the amounts of ^32P released.

HeLa cells = assay: immunocytochemistry of laminin γ1 aggregation in tunicamycin-treated cells; assay type: cell-based; conditions: HeLa, Tm 0.5 μg/ml, 5 hours, 50 μM KUS
Experimental: Figure 4 KUSs and ATP each prevented a decrease of ATP levels and ameliorated ER stress in tunicamycin-treated cells. (a) Immunocytochemical analyses of HeLa cells by an anti-laminin γ1 antibody. HeLa cells were treated with 0.5 μg/ml of tunicamycin (Tm) for 5 hours in the presence of KUSs (50 μM), ATP (0.1, 0.3, and 1 mM), methylpyruvate (MePyr) (3 and 10 mM), or vehicle alone (DMSO). Then, cells were fixed and subjected to immunocytochemical analyses. Normally growing HeLa cells were also analyzed (Control). Scale bar, 10 μm. (b) Measurements of the relative amounts of ATP per cell. HeLa cells were treated with tunicamycin (Tm, 0.5 μg/ml) for 24 hours in the presence of KUSs (50 μM) or ATP (0.1 and 1 mM), or vehicle alone (DMSO), and were harvested. Then, ATP amounts from 1.5 × 10^5 cells were measured. * P < 0.05, ** P < 0.01. Error bars indicate SD. (c) Western blot analyses on CHOP. HeLa cells were treated with 0.5 μg/ml of tunicamycin for 5 hours in the presence of KUSs (50 μM), ATP (0.1, 0.3, and 1 mM), methylpyruvate (MePyr) (3 and 10 mM), or vehicle alone (-). Then, cells were harvested and subjected to western blot analyses. Actin served as a loading control. Complete scans of the different blots are presented in Supplementary Fig. 9.

recombinant VCP = recombinant VCP (Homo sapiens, UniProt P55072); assay: ATPase activity of recombinant VCP in vitro (modified molybdate assay, [γ-32P]ATP); assay type: biochemical
recombinant VCP, sequence (P55072 whole entry, species assumed): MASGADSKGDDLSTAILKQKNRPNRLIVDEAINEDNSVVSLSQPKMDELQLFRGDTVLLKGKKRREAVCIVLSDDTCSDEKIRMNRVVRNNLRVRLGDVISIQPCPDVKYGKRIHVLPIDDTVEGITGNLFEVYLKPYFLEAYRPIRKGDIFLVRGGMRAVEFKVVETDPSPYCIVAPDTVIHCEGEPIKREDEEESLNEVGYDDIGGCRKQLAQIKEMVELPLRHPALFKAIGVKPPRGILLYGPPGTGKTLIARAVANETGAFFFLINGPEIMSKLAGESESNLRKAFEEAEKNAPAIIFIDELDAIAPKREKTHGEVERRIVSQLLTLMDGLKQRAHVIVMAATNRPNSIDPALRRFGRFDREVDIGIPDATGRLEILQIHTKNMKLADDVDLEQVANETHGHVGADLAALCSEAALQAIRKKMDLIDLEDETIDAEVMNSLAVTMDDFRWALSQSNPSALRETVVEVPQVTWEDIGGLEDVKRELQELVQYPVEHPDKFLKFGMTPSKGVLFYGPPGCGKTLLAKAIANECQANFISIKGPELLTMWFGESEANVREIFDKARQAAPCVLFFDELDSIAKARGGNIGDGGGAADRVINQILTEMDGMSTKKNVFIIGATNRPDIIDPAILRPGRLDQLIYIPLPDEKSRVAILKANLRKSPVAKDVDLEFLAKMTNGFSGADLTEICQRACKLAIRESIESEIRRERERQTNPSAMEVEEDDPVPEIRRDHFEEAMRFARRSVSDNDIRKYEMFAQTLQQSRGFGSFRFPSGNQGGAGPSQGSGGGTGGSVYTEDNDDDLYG
Experimental: as §1

`Cc1cc(F)ccc1-c1ccc(/N=N/c2cc(S(=O)(=O)O)c3ccccc3c2N)cn1` [KUS121] was tested. Which “induction of accumulation of ubiquitinated proteins, ER stress (CHOP), autophagy (LC3)” value (cellular VCP functions) did it give?
The value was “did not induce any of these phenotypes”.

And the a-wave amplitude (C57BL/6 wild-type mice; adult C57BL/6 wild-type mice, KUS121 for 7 days, saline 203.5 ± 41.6, P = 0.56, in µV (unit assumed))?
The a-wave amplitude was 195.8 ± 30.2.

What about the b-wave amplitude (C57BL/6 wild-type mice; adult C57BL/6 wild-type mice, KUS121 for 7 days, saline 425.8 ± 92.9, P = 0.86, in µV (unit assumed)) of the same compound?
Its b-wave amplitude is 420.8 ± 52.6.

What about the “change in the amplitude of a- and b-waves vs saline” value (C57BL/6 wild-type mice; adult wild-type mice) of the same compound?
Its value is “no significant differences”.

And the apparent cellular toxicity [1]?
The apparent cellular toxicity was “did not manifest any apparent cellular toxicity”.

And the “lowering of total ATPase activity” value ([2]; 100 nM compound)?
Its value is “approximately 20%”.

What about the “lowering of total ATPase activity” value ([2]; 1 μM compound) of the same compound?
The value was about 40%.

And the “aggregation of laminin γ1” value (HeLa cells)?
The value was “clearly prevented the aggregation of laminin γ1”.

And the IC50 (recombinant VCP)?
The IC50 was 0.2 to 0.3 µM and 0.33 µM.
